≈ marks a conversion by molar mass, not a printed value.
How the values were obtained:
[1] = test system: A fumigatus II - 1012; assay: MIC determination (NCCLS broth method); type: cell-based, Aspergillus fumigatus; settings: Aspergillus fumigatus, II1012, read-out: Minimum Inhibitory Concentration (MIC)
Text: (§1) The in-vitro evaluation of the antifungal activity of the compounds can be performed by determining the minimum inhibitory concentration (MIC) as shown in Table 1 which is the concentration of the test compound in Rosewell Park Memorial Institute (RPMI) 1640 liquid medium buffered with 3-(Morpholino)propanesulphonic acid (MOPS) to pH 7, at which there is significant inhibition of the particular fungi. In practice the National Committee for Clinical Laboratory Standard (NCCLS) M27A document for Candida and Cryptococcus and M38P for Aspergillus was used to determine the MIC against yeast and filamentous fungi with suitable modifications for dermatophytes to other filamentous fungi. Three quality control strains were included each time the MIC were determined and readings recorded only when the Quality Control results fell into the acceptable range. After MIC results had been recorded, 100 μl from each of the well showing no growth was spread over Sabouraud Dextrose Agar (SDA) to determine the minimum fungicidal concentration (MFC) as shown in Table 2.

[2] = test system: A fumigatus SI-1 - 1019; assay: MIC determination (NCCLS broth method); type: cell-based, Aspergillus fumigatus; settings: Aspergillus fumigatus, SI11019, read-out: Minimum Inhibitory Concentration (MIC)
Text: as §1

[3] = test system: A fumigatus 1008; assay: MIC determination (NCCLS broth method); type: cell-based, Aspergillus fumigatus; settings: Aspergillus fumigatus, read-out: Minimum Inhibitory Concentration (MIC)
Text: as §1

[4] = test system: A fumigatus I - 1011; assay: MIC determination (NCCLS broth method); type: cell-based, Aspergillus fumigatus; settings: Aspergillus fumigatus, I1011, read-out: Minimum Inhibitory Concentration (MIC)
Text: as §1

[5] = test system: A fumigatus PGI - 1023; assay: MIC determination (NCCLS broth method); type: cell-based, Aspergillus fumigatus; settings: Aspergillus fumigatus, PGI1023, read-out: Minimum Inhibitory Concentration (MIC)
Text: as §1

[6] = test system: A fumigatus K - 1033; assay: MIC determination (NCCLS broth method); type: cell-based, Aspergillus fumigatus; settings: Aspergillus fumigatus, K1033, read-out: Minimum Inhibitory Concentration (MIC)
Text: as §1

[7] = test system: A fumigatus L - 1034; assay: MIC determination (NCCLS broth method); type: cell-based, Aspergillus fumigatus; settings: Aspergillus fumigatus, L1034, read-out: Minimum Inhibitory Concentration (MIC)
Text: as §1

[8] = test system: A fumigatus J - 1032; assay: MIC determination (NCCLS broth method); type: cell-based, Aspergillus fumigatus; settings: Aspergillus fumigatus, J1032, read-out: Minimum Inhibitory Concentration (MIC)
Text: as §1

[9] = test system: P variotii 22319; assay: MFC determination (subculture on Sabouraud Dextrose Agar); type: cell-based, Paecillomyces variotii; settings: read-out: Minimum Fungicidal Concentration (MFC)
Text: as §1

[10] = test system: A fumigatus SI-1 - 1019; assay: as above; type: cell-based, Aspergillus fumigatus; settings: Aspergillus fumigatus, SI11019, read-out: Minimum Fungicidal Concentration (MFC)
How it was run: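 Broth microdilution per NCCLS M27A (yeasts) and M38P (Aspergillus), modified for dermatophytes and other filamentous fungi; RPMI 1640 buffered with MOPS to pH 7. MIC is the lowest concentration giving significant growth inhibition. Wells showing no growth are subcultured onto Sabouraud Dextrose Agar to give the MFC.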

[11] = test system: T. rubrum; assay: Activity against dermatophytes; type: cell-based; set-up: unit not given here
Text: as §1
(§2) A comparative in vitro and in vivo biologically activity data of the compound of our invention, 2-{[1R,2R]-2-(2,4-Difluorophenyl)-2-hydroxy-1-methyl-3-(1H-1,2,4-triazole-1-yl)propyl}-4-[(2′,2′,3′,3′-tetrafluoropropoxyphenyl)-3-(2H,4H)-1,2,4-thiotriazolone (Compound No. 3) with 2-[(1R,2R)-2-(2,4-difluorophenyl)-2-hydroxy-1-methyl-3-(1H-1,2,4-triazol-1-yl)propyl]-4-(2′,2′,3′,3′-tetraflouropropoxyphenyl)-3(2H,4H)-1,2,4-triazolone (TAK 187) and standard antifungal pharmaceuticals is given below: […]

[12] = test system: T. mentagrophyte; assay: Activity against dermatophytes; type: cell-based; set-up: unit not given here
Text: as §1, §2

[13] = test system: Fusarium (Ceylon); assay: MFC determination (subculture on Sabouraud Dextrose Agar); type: cell-based; settings: read-out: Minimum Fungicidal Concentration (MFC)
Text: as §1

[14] = test system: Rhizopus 1052; assay: as above; type: cell-based; settings: read-out: Minimum Fungicidal Concentration (MFC)
Text: as §1

[15] = test system: A flavus E3 - 1044; assay: as above; type: cell-based; settings: read-out: Minimum Fungicidal Concentration (MFC)
Text: as §1

[16] = test system: C parapsilosis 22019; assay: as above; type: cell-based; settings: read-out: Minimum Fungicidal Concentration (MFC)
Text: as §1

[17] = test system: Mucor (Ceylon); assay: as above; type: cell-based; settings: read-out: Minimum Fungicidal Concentration (MFC)
Text: as §1

[18] = test system: C krusei 6258; assay: as above; type: cell-based; settings: read-out: Minimum Fungicidal Concentration (MFC)
Text: as §1

[19] = test system: Penicillium H - 1048; assay: as above; type: cell-based; settings: H1048, read-out: Minimum Fungicidal Concentration (MFC)
Text: as §1

[20] = test system: Penicillium 191; assay: as above; type: cell-based; settings: read-out: Minimum Fungicidal Concentration (MFC)
Text: as §1

[21] = test system: A flavus P3 - 1041; assay: as above; type: cell-based; settings: read-out: Minimum Fungicidal Concentration (MFC)
Text: as §1

[22] = test system: A niger P1 - 1046; assay: as above; type: cell-based; settings: read-out: Minimum Fungicidal Concentration (MFC)
Text: as §1

[23] = test system: Fusarium 29600; assay: as above; type: cell-based; settings: Fusarium, 29600, read-out: Minimum Fungicidal Concentration (MFC)
Text: as §1

[24] = test system: A niger E5 - 1047; assay: as above; type: cell-based; settings: read-out: Minimum Fungicidal Concentration (MFC)
Text: as §1

[25] = test system: A flavus E4 - 1042; assay: as above; type: cell-based; settings: read-out: Minimum Fungicidal Concentration (MFC)
Text: as §1

[26] = test system: Penicillium 2548; assay: as above; type: cell-based; settings: read-out: Minimum Fungicidal Concentration (MFC)
Text: as §1

[27] = test system: Alternaria 1051; assay: as above; type: cell-based; settings: read-out: Minimum Fungicidal Concentration (MFC)
Text: as §1

[28] = test system: Fusarium 18270; assay: as above; type: cell-based; settings: Fusarium, 18270, read-out: Minimum Fungicidal Concentration (MFC)
Text: as §1

[29] = test system: Rhizopus (Ceylon); assay: as above; type: cell-based; settings: read-out: Minimum Fungicidal Concentration (MFC)
Text: as §1

[30] = test system: Penicillium 31620; assay: as above; type: cell-based; settings: read-out: Minimum Fungicidal Concentration (MFC)
Text: as §1

[31] = test system: Penicillium 2306; assay: as above; type: cell-based; settings: read-out: Minimum Fungicidal Concentration (MFC)
Text: as §1

[32] = test system: Penicillium 1641; assay: as above; type: cell-based; settings: read-out: Minimum Fungicidal Concentration (MFC)
Text: as §1

[33] = test system: A flavus P2 - 1045; assay: as above; type: cell-based; settings: read-out: Minimum Fungicidal Concentration (MFC)
Text: as §1

[34] = test system: Penicillium I - 1049; assay: as above; type: cell-based; settings: I1049, read-out: Minimum Fungicidal Concentration (MFC)
Text: as §1

| Compound | MIC [1] [µg/mL] | MIC [2] [µg/mL] | MIC [3] [µg/mL] | MIC [4] [µg/mL] | MIC [5] [µg/mL] | MIC [6] [µg/mL] | MIC [7] [µg/mL] | MIC [8] [µg/mL] | MFC [9] [µg/mL] | MFC [10] [µg/mL] | Activity against dermatophytes [11] | Activity against dermatophytes [12] | MFC [13] [µg/mL] | MFC [14] [µg/mL] | MFC [15] [µg/mL] | MFC [16] [µg/mL] | MFC [17] [µg/mL] | MFC [18] [µg/mL] | MFC [19] [µg/mL] | MFC [20] [µg/mL] | other results |
| --- | --- | --- | --- | --- | --- | --- | --- | --- | --- | --- | --- | --- | --- | --- | --- | --- | --- | --- | --- | --- | --- |
| OC(Cn1cncn1)(Cn1cncn1)c1ccc(F)cc1F [Fluconazole] | > 128 | > 128 | > 128 | > 128 | > 128 | > 128 | > 128 | > 128 | > 128 | > 128 | >128 | >128 | > 128 | > 128 | > 128 | 4 (≈ 13.1 µM) | > 128 | 128 (≈ 418 µM) | > 128 | > 128 | MFC [21]: > 128 µg/mL; MFC [22]: > 128 µg/mL; MFC [23]: > 128 µg/mL; MFC [24]: > 128 µg/mL; MFC [25]: > 128 µg/mL; MFC [26]: > 128 µg/mL; MFC [27]: > 128 µg/mL; MFC [28]: > 128 µg/mL; MFC [29]: > 128 µg/mL; MFC [30]: > 128 µg/mL; MFC [31]: > 128 µg/mL; MFC [32]: > 128 µg/mL; MFC [33]: > 128 µg/mL; MFC [34]: > 128 µg/mL |
| CCC(C)n1ncn(-c2ccc(N3CCN(c4ccc(OCC5COC(Cn6cncn6)(c6ccc(Cl)cc6Cl)O5)cc4)CC3)cc2)c1=O (centres unmarked) [Itraconazole] | 0.06 (≈ 0.085 µM) | 0.03 (≈ 0.0425 µM) | 0.06 (≈ 0.085 µM) | 0.06 (≈ 0.085 µM) | 0.03 (≈ 0.0425 µM) | 0.06 (≈ 0.085 µM) | 0.06 (≈ 0.085 µM) | 0.03 (≈ 0.0425 µM) | 0.06 (≈ 0.085 µM) | 0.25 (≈ 0.354 µM) | 0.03 | 0.125 | > 128 | 8 (≈ 11.3 µM) | 0.03 (≈ 0.0425 µM) | 8 (≈ 11.3 µM) | > 128 | 64 (≈ 90.7 µM) | > 128 | 0.06 (≈ 0.085 µM) | MFC [21]: 0.06 µg/mL (≈ 0.085 µM); MFC [22]: 0.25 µg/mL (≈ 0.354 µM); MFC [23]: > 128 µg/mL; MFC [24]: 0.125 µg/mL (≈ 0.177 µM); MFC [25]: 0.125 µg/mL (≈ 0.177 µM); MFC [26]: 0.06 µg/mL (≈ 0.085 µM); MFC [27]: 32 µg/mL (≈ 45.3 µM); MFC [28]: 128 µg/mL (≈ 181 µM); MFC [29]: 128 µg/mL (≈ 181 µM); MFC [30]: 1 µg/mL (≈ 1.42 µM); MFC [31]: 16 µg/mL (≈ 22.7 µM); MFC [32]: 0.06 µg/mL (≈ 0.085 µM); MFC [33]: 0.25 µg/mL (≈ 0.354 µM); MFC [34]: > 128 µg/mL |
